According to patent publication US6492427B2, “Methods for treating multiple sclerosis” (priority 1998, dated 2002):

Experiments:
[1] = system: oligodendroglial cells; experiment: Nuclear integrity assay: counts of intact nuclei (Zap-oglobin lysis) after insulin and IGF-I withdrawal; format: cell-based, rat; settings: for increase in number of intact nuclei compared to BM: BM + 10^−9 M (BM-D9) vs BM; for number of intact nuclei compared to IM: IM + 10^−9 M (IM-D9)
Description: In order to examine insulin and IGF-I dependent survival of the cells of the oligodendroglial lineage, cells were trophically deprived for a period of 24 hours at 16 DIV.
(§1) Cells were trophically withdrawn by replacing the media with a serum free, chemically-defined base media (BM) lacking insulin and IGF-I (Bottenstein et al., 1988). The base media consisited of DMEM supplemented with penicillin (50 IU/ml); streptomycin (50 μg/ml); 1 mM sodium pyruvate; 50 μg/ml transferrin; 0.005 μg/ml sodium selenite; 16 μg/ml putrescine; 0.006 μg/ml progesterone and 0.1 mg/ml bovine serum albumin. All the cells were washed with BM twice before exposing them to individual treatment conditions. Control cells were washed and placed in BM supplemented with 2.5 ng/ml IGF-I and 5 μg/ml insulin to form the insulin media (IM).
Cell survival in the cultures was assessed according to the method of (Soto and Sonnenschein, 1985). After washing and treatment in BM, BM-D9, IM and IM-D9 for 24 h, cells were harvested, centrifuged at 500 rpm for 5 min and the supernatant removed. Pelleted cells were then lysed with 200 μl of 10% Zap-oglobin (Coulter Electronics, FL, USA). The lysing agent is a detergent containing solution that lyses the plasma membrane but leaves the nuclei intact. The lysed solution was collected and vortexed. A small volume (10 μl) of the solution was removed and intact nuclei were counted using a haemocytometer. To be counted, nuclei had to show a completely intact smooth outer border. Counts of intact nuclei were pooled for three or four experiments (a total of 15-20 wells were used for each treatment condition). each treatment condition).
OLs at 16 DIV were exposed to the different drug treatment conditions for 24 h, following which, the nuclear integrity assay was performed. On the day of the treatment, the cells growing in Nunc 24 well plates were washed twice with base media. Each treatment well received 50 μl of the appropriate drug solution and the total volume in the well was made up to 500 μl with either BM or IM.
Nuclear counts were obtained from quadruplicate wells per treatment condition and the experiment was repeated twice. OLs were exposed to the following treatment conditions: 1) IM, 2) BM, 3) BM-D9, 4) (−)-Desmethyldeprenyl (BM-Ds9), 5) IM-D9 and 6) IM +10^−9 M (−)-Desmethyldeprenyl (IM-Ds9).
The treatment conditions with the three general cytochrome P450 blockers were: 1) BM+Proadifen (2.5, 10, 25 μM), 2) BM-D9+Proadifen (2.5, 10, 25 μM), 3) BM-Ds9+Proadifen (2.5, 10, 25 μM), 4) BM+Metapyrone (50 μM), 5) BM-D9+Metapyrone (50 μM), 6) BM-Ds9+Metapyrone (50 μM), 7) BM+Piperonyl butoxide (100 μM), 5) BM-D9+Piperonyl butoxide (100 μM), 6) BM-Ds9+Piperonyl butoxide (100 μM).
OLs at 16 DIV were washed twice with base media and exposed either to actinomycin, a transcriptional blocker or cycloheximide, a translational blocker for 24 h. […] Actinomycin and cycloheximide were either used with base media alone or in combination with 10^−9 M (−)-desmethyldeprenyl. Each treatment well received 50 μl of the drug solution and the total volume of the well was made up to 500 μl with base media.
Counts of intact nuclei, obtained from quadruplicate wells per treatment condition were used to quantitate the effects of the transcriptional and translational blockers. Each experiment was repeated twice for experimental density series-II.

[2] = system: oligodendroglial cells; experiment: Total counts of intact methylene blue stained cells; format: cell-based, rat; settings: BM-D9 (10^−9 M), 24 h
Description: as §1
To study the effects of trophic-like agents on the survival of oligodendroglial […].
Methylene blue (3,7-bis (dimethylamino)-phenothiazin-5-ium chloride), a ribonucleic acid (RNA) binding agent commonly used as an alternative nucleic acid stain, can also be used as a biological staining agent to stain cells in order to observe their morphological features. […]
Cell counts were performed for 25 randomly chosen 100 power fields on each coverslip. […] Three coverslips was counted for each treatment condition. In subsequent experiments, different cell types (for example, O-2A progenitors, PROLs, OLs and astrocytes) were morphologically identified on each field and were counted separately for experimental series-I and II. […]

Structure (SMILES): C#CCN(C)[C@H](C)Cc1ccccc1 [(−)-deprenyl, R-(−)-N,α-Dimethyl-N-2-propynyl phenethylamine]
- increase in number of intact nuclei compared to BM ([1]; 24 h, experimental series-I): 217%
- increase in number of intact nuclei compared to BM ([1]; 24 h, experimental series-II (15.8×10^3 cell/mm^2)): 164%
- numbers of intact nuclei, % of those in IM ([1]; BM + 10^−9 M (BM-D9), 24 h, experimental series-I (5.3×10^3 cell/mm^2)): 119%
- increase in counts of intact nuclei compared to those for BM ([1]; BM + 10^−9 M, 24 h, metabolite experiments (FIG. 11)): 194%
- concentration-survival relationship, numbers of intact nuclei ([1]; BM with 10^−5, 10^−7 and 10^−9 M, 24 h): graded increase in the numbers of intact nuclei with the greatest increase for 10^−9 M
- number of intact nuclei compared to IM ([1]; 24 h, experimental series-I): 135.6%
- number of intact nuclei compared to IM ([1]; 24 h, experimental series-II): 102.4%
- Survival (24 h) ([1]; OL cell survival, relative to control (IM)): ++++
- number of intact methylene blue stained cells, % of those in BM ([2]; experimental series-I): 576%
- number of intact methylene blue stained cells, % of those in BM ([2]; experimental series-II): 255%
